What was measured:
THP-1 [1] = assay: Anti-inflammatory activity in Homo sapiens (human) PMA-stimulated THP1 cells assessed as inhibition of LPS-induced TNFalpha production at 10 uM incubated for 30 min prior to LPS-challenge measured after 24 hr by ELISA; assay type: functional; settings: values are per cent of control
THP-1 [2] = assay: Anti-inflammatory activity in Homo sapiens (human) PMA-stimulated THP1 cells assessed as inhibition of LPS-induced IL6 production at 10 uM incubated for 30 min prior to LPS-challenge measured after 24 hr by ELISA; assay type: functional
[3] = Cytotoxicity against Homo sapiens (human) […] at 10 uM after 24 hr; assay type: cell-based; settings: cck8, 24 h
THP-1 [4] = assay: Anti-inflammatory activity in Homo sapiens (human) PMA-stimulated THP1 cells assessed as inhibition of LPS-induced IL6 production incubated for 30 min prior to LPS-challenge measured after 24 hr by ELISA; assay type: functional, cell-based
[5] = Cytotoxicity against Homo sapiens (human) […] cells at 1 uM after 24 hr; assay type: cell-based
THP-1 [6] = assay: Anti-inflammatory activity in Homo sapiens (human) PMA-stimulated THP1 cells assessed as inhibition of LPS-induced IL6 production at 1 uM incubated for 30 min prior to LPS-challenge measured after 24 hr by ELISA; assay type: functional
THP-1 [7] = assay: Anti-inflammatory activity in Homo sapiens (human) PMA-stimulated THP1 cells assessed as inhibition of LPS-induced TNFalpha production at 1 uM incubated for 30 min prior to LPS-challenge measured after 24 hr by ELISA; assay type: functional

Row | IC50 (THP-1 [4]) | Compound | response, % of control at 10 µM (THP-1 [1]) | inhibition at 10 µM (THP-1 [2]) | Activity [3] | Activity [5] | inhibition at 1 µM (THP-1 [6]) | inhibition at 1 µM (THP-1 [7])
1 |  | COc1cc(OC)c(C(=O)c2cccc(Cl)c2)c(O)c1Br | 10% | 78% | 33% |  |  | 
2 |  | COc1cc(OC)c(C(=O)c2ccccc2)c(O)c1Br | 19% | 80% | 38% |  |  | 
3 |  | COc1cc(OC)c(C(=O)c2ccccc2C)c(O)c1Br | 0% | 70% | 40% |  |  | 
4 |  | COc1cc(OC)c(C(=O)c2ccccc2F)c(O)c1Br | 0% | 76% | 46% |  |  | 
5 |  | COc1cc(OC)c(C(=O)c2cccc(C)c2)c(O)c1Br | 4% | 76% | 32% |  |  | 
6 |  | COc1ccc(C(=O)c2c(OC)cc(OC)c(Br)c2O)cc1 | 6% | 82% | 34% |  |  | 
7 | 0.19 µM | COc1cc(OC)c(C(=O)c2ccc(F)cc2)c(O)c1Br | 0% | 63% | 19% |  |  | 
8 |  | C[C@@H]1C[C@H]2[C@@H]3CCC4=CC(=O)C=C[C@]4(C)[C@@]3(F)[C@@H](O)C[C@]2(C)[C@@]1(O)C(=O)CO [DEXAMETHASONE] |  |  |  | 0% | 94% | 72%
